Test results reported in publication PMC8767159, “Multiparameter Optimization of Trypanocidal Cruzain Inhibitors With In Vivo Activity and Favorable Pharmacokinetics” (Frontiers in Pharmacology, 2022).
Read-outs that look alike come from different tables or passages of the source.

How the values were obtained:
[1] = Parallel artificial membrane permeability assay (PAMPA); format: in vitro ADME; parameters: PAMPA: unit: 1e-6 cm/s; conditions: for PAMPA: unit not given
Procedure: The permeability of the compounds was assessed using the PAMPA method ([Yu et al., 2015]). The test compounds were dissolved in DMSO to a concentration of 5 mM. Next, the compounds were diluted in a stock plate in saline phosphate buffer (PBS), pH 6.5, containing 1% DMSO to a concentration of 1 µM. Then, 300 µl of each test compound was added to the donor plate. Afterward, 200 µl of PBS buffer, pH 7.4, was added to the acceptor plate. The donor plate was attached to the acceptor plate. The assembled acceptor-donor plate was then incubated at 37°C for 5 h under gentle agitation. To analyze the concentration of the compounds by mass spectrometry, two analysis plates (one for the donor and another for the acceptor plate) containing 300 μl of MEOH:ACN 50:50 were prepared. To the donor analysis plate, 90 µl of PBS, pH 6.5, and 10 µl of the content of the donor plate were added. For the acceptor analysis plate, 100 µl of the content of the acceptor plate was added. To monitor any potential decomposition/intrinsic instability of the test compounds in solution, samples from the stock plate were subjected to LC-MS/MS. The compounds that presented Pe ≥ 1.5 × 10^−6 cm/s were classified as permeable, while compounds that presented Pe < 1.5 × 10^−6 cm/s were considered poorly permeable or nonpermeable.

cruzain = biological target: T1, cruzain (Trypanosoma cruzi, UniProt P25779); experiment: Cruzain enzyme inhibition assay (cleavage of fluorogenic substrate Z-FR-AMC); format: biochemical; conditions: for inhibition at 100 µM: compound 100 µM, mean of three measures; for % cruzain inhibition, 0% Triton / % cruzain inhibition, 0.01% Triton / % cruzain inhibition, 0.1% Triton: Table S1; for % cruzain inhibition, 0% Triton: 0% Triton X-100; for % cruzain inhibition, 0.01% Triton: 0.01% Triton X-100; for % cruzain inhibition, 0.1% Triton: 0.1% Triton X-100; for Mechanism of cruzain inhibition (Lineweaver-Burk plots): eight substrate and four inhibitor concentrations
T1 construct: made in house; host or cells: Escherichia coli (strain M15)
T1 sequence (P25779 123-337 limits assumed): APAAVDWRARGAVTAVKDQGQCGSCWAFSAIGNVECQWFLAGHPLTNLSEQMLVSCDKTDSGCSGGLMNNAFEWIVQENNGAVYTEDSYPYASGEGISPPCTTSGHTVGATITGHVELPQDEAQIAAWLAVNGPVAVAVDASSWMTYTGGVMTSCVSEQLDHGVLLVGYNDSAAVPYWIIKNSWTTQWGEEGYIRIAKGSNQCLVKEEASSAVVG
Procedure: Pro-cruzain truncated at the C-terminus was expressed and purified using a previously described protocol ([Ferreira et al., 2019]). Escherichia coli (strain M15) cultures were grown overnight at 37°C and 200 rpm in Luria Bertani (LB) medium supplemented with ampicillin (100 μg/ml) and kanamycin (50 μg/ml). Next, the cultures were diluted 10-fold in fresh LB medium supplemented with 0.5 M NaCl, 0.2% glucose, 1 mM betaine, 0.5 M sorbitol, 100 μg/ml ampicillin, and 50 μg/ml kanamycin and incubated at 37°C and 200 rpm. At an optical density (OD600) of 0.9, the cultures were incubated at 47°C for 20 min to promote the expression of chaperones. Then, the expression of cruzain was induced by adding isopropyl β-D-thiogalactopyranoside (IPTG) to a final concentration of 0.2 mM, which was followed by overnight incubation of the cultures at 20°C and 200 rpm. Next, the cultures were centrifuged (5,000 rpm, 30 min, 4°C), and the cells were suspended in 50 ml of lysis buffer (300 mM NaCl, 50 mM Tris-HCl, and 1.6 mg/ml lysozyme, pH 8.0) per liter of culture and lysed by sonication (12 cycles of 30 s). This cell lysate was centrifuged (9,000 rpm, 30 min, 4°C), and the supernatant was collected. Cruzain was precipitated by incubation with 35% ammonium sulfate (2 h), and this suspension was centrifuged at 9,000 rpm for 30 min at 4°C. The precipitated cruzain was resuspended in lysis buffer, and the sample was dialyzed to eliminate ammonium sulfate. The soluble fraction of the dialysate was loaded on a Ni−NTA column (Qiagen, Hilden, Germany), and the contaminants were washed using washing buffer (300 mM NaCl, 50 mM Tris-HCl, and 10 mM imidazole, pH 8.0). Cruzain was eluted by applying an increasing imidazole gradient: 25, 50, 75, 100, and 250 mM. The fractions containing cruzain were pooled together and dialyzed against 1.5 L of 0.1 M acetate buffer, pH 5.5, and then concentrated to 0.5 mg/ml. Pro-cruzain was activated by incubation with activation buffer (100 mM sodium acetate, pH 5.5, 10 mM EDTA, 5 mM DTT, and 1 M NaCl) at 37°C. […] After activation, the enzyme was diluted 20-fold in binding buffer (20 mM sodium phosphate and 150 mM NaCl, pH 7.2) and added to thiopropyl Sepharose 6B resin (GE Healthcare Life Sciences, Pittsburgh, PA). After overnight incubation at 4°C, the resin was loaded on a column, and cruzain was eluted with binding buffer supplemented with 20 mM DTT. Fractions containing cruzain were pooled together and stored in 0.1 M sodium acetate, pH 5.5, at −80°C.
Cruzain activity was followed by monitoring the cleavage of the fluorogenic substrate Z-Phe-Arg-aminomethyl coumarin (Z-FR-AMC), as previously described ([Ferreira et al., 2019]), using 96-well flat-bottom black plates and wavelengths of 355 nm for excitation and 460 nm for emission. All cruzain assays were performed in 0.1 M sodium acetate buffer with 5 mM dithiothreitol (DTT) and 0.01% Triton X-100, pH 5.5. […] The cleavage of the substrate was monitored for 5 min, and the activity was calculated based on the initial reaction rates compared with the rate of a DMSO control at 30°C. The IC50 values were independently calculated by considering the rate measurements for at least six inhibitor concentrations, each evaluated in triplicate. To determine the mechanism of cruzain inhibition, eight concentrations of the substrate Z-FR-AMC and four concentrations of the inhibitor were employed, each in triplicate. Kinetic parameters were determined using the SigmaPlot (Systat Software Inc., Erkrath, Germany) enzyme kinetics module. Compounds were tested in two or three independent experiments. All enzyme assays were performed using varying Triton X-100 concentrations (0, 0.01, and 0.1%) ([Ferreira et al., 2009]). Compound concentrations were 100 μM in the single-dose percentage inhibition assays.

[2] = Cytotoxicity MTS assay in HFF-1 fibroblasts; format: cell-based; conditions: human HFF-1 fibroblasts
Procedure: The synthesized compounds were evaluated for their cytotoxicity against HFF-1 cells using the MTS assay (Promega, Madison, WI) ([Barltrop et al., 1991]) as previously described ([Ferreira et al., 2019]). HFF-1 fibroblasts were plated at 2 × 10^3/well in 96-well culture plates in RPMI 1640 without phenol red enriched with 10% FCS and incubated overnight at 37°C and 5% CO2. Next, 7 concentrations (0.1–100 µM) of the compounds were added in 3-fold serial dilutions, each concentration in triplicate, and the plates were incubated for 72 h at 37°C and 5% CO2. Next, 20 µl of MTS was added to each well, and the plates were incubated for an additional 4 h at 37°C and 5% CO2. The absorbance was measured at 490 nm using a spectrophotometer, and the data were transferred to SigmaPlot 10.0 (Systat Software Inc., Erkrath, Germany) to determine the IC50 values. Doxorubicin (Sigma–Aldrich) was used as a positive control, and untreated wells (100% growth) were used as negative controls in all plates. All compounds were tested in two independent assays.

[3] = PAMPA, Table 3, donor pH 6.5, acceptor pH 7.4, 5 h
[4] = 1.5 nM cruzain, 5.0 µM Z-FR-AMC, mean ± SD of 2–3 assays, read-out: IC50 (µM) against cruzain

inhibition at 100 µM (cruzain) | Papp at 5 h, 1 µM ([1]; Table S5, unit inferred) | SMILES | IC50 (cruzain; [4]) | IC50 at 72 h [2] | Papp at 5 h, 1 µM ([1]; PAMPA, Table 5) | further results
– | – | O=C(COc1ccccc1[N+](=O)[O-])NCCc1nc2ccccc2[nH]1 [Compound 32] | – | > 100000 nM | 4.9 ×10⁻⁶ cm/s | –
79% | 17.8 ×10⁻⁶ cm/s | O=C(COc1ccccc1)NCCc1nc2ccccc2n1-c1ccccc1 [Compound 30] | 8.6 ± 2.6 µM | – | – | –
– | – | O=C(CCc1ccccc1Br)NCCc1nc2ccccc2[nH]1 [Compound 36] | – | – | 4.7 ×10⁻⁶ cm/s | –
75% | 0.03 ×10⁻⁶ cm/s | O=C(COc1cccc(NC(=O)CCCO)c1)NCCc1nc2ccccc2[nH]1 [Compound 7] | – | – | – | –
– | – | Cc1ccccc1OCC(=O)NCCc1nc2ccccc2[nH]1 [Compound 17] | – | > 100000 nM | 5.9 ×10⁻⁶ cm/s | –
58% | – | O=C(COc1ccc2c(C(=O)O)cccc2c1)NCCc1nc2ccccc2[nH]1 [Compound 15] | > 100 µM | – | – | –
72% | 0.08 ×10⁻⁶ cm/s | O=C(COc1ccccc1)NCCc1nc2ccccc2n1CCOc1ccccc1Br [Compound 19] | – | – | – | % cruzain inhibition, 0% Triton (cruzain): 73.4 ± 2.5%; % cruzain inhibition, 0.01% Triton (cruzain): 72.1 ± 1.7%; % cruzain inhibition, 0.1% Triton (cruzain): 77.5 ± 2.2%
76% | 3.98 ×10⁻⁶ cm/s | O=C(COc1ccccc1)NCCc1nc2ccccc2n1CCOCc1ccccc1 [Compound 21] | 1.69 ± 0.4 µM | – | – | % cruzain inhibition, 0% Triton (cruzain): 80.3 ± 1.4%; % cruzain inhibition, 0.01% Triton (cruzain): 85.5 ± 2.3%; % cruzain inhibition, 0.1% Triton (cruzain): 84.6 ± 1.3%
20% | 0.17 ×10⁻⁶ cm/s | O=C(COc1ccc(N2C(=O)CCC2=O)cc1)NCCc1nc2ccccc2[nH]1 [Compound 4] | – | – | – | –
– | – | O=C(COc1ccccc1Br)NCCc1nc2ccccc2[nH]1 [Compound 18] | – | > 100000 nM | 5.6 ×10⁻⁶ cm/s | –
36% | 0.04 ×10⁻⁶ cm/s | Cc1ccccc1OCC(=O)NCCc1nc2ccccc2n1CCOc1ccccc1Br [Compound 22] | – | – | – | –
– | – | O=C(COc1ccc2ccccc2c1Br)NCCc1nc2ccccc2[nH]1 [Compound 34] | – | > 30000 nM | 0.3 ×10⁻⁶ cm/s | –
– | – | N#Cc1ccccc1OCC(=O)NCCc1nc2ccccc2[nH]1 [Compound 31] | – | – | 2.2 ×10⁻⁶ cm/s | –
79% | 9.35 ×10⁻⁶ cm/s | COCCn1c(CCNC(=O)COc2ccccc2)nc2ccccc21 [Compound 29] | 8.8 ± 1.8 µM | – | – | –
38% | 0.2 ×10⁻⁶ cm/s | O=C(COc1cccc(N2C(=O)CCC2=O)c1)NCCc1nc2ccccc2[nH]1 [Compound 6] | – | – | – | –
49% | 0.08 ×10⁻⁶ cm/s | O=C(COc1ccccc1Br)NCCc1nc2ccccc2n1CCOc1ccccc1Br [Compound 23] | – | – | – | % cruzain inhibition, 0% Triton (cruzain): 52.1 ± 1.3%; % cruzain inhibition, 0.01% Triton (cruzain): 53.2 ± 1.9%; % cruzain inhibition, 0.1% Triton (cruzain): 55.5 ± 5.2%
– | – | O=C(COc1ccc2ccccc2c1)NCCc1nc2ccccc2[nH]1 [Compound 35] | – | > 100000 nM | 0.7 ×10⁻⁶ cm/s | –
– | – | O=C(COc1ccc(Br)cc1)NCCc1nc2ccccc2[nH]1 [Compound 33] | – | > 100000 nM | 0.7 ×10⁻⁶ cm/s | –
– | – | Cc1ccccc1OCC(=O)NCCc1nc2ccccc2o1 [Compound 37] | – | > 100000 nM | 19.7 ×10⁻⁶ cm/s | –
– | – | C=CCCn1c(CCNC(=O)COc2ccccc2Cl)nc2ccccc21 [Compound 38] | – | > 100000 nM | 7.7 ×10⁻⁶ cm/s | –
– | – | O=C(Cn1ccnc1[N+](=O)[O-])NCc1ccccc1 [BZ, benznidazole, reference compound] | – | > 100000 nM | 3.2 ×10⁻⁶ cm/s | Papp at 5 h, 1 µM [1, 3]: 3.17 ×10⁻⁶ cm/s; PAMPA ([1]; Table S5): 3.17

SMILES | inhibition at 100 µM (cruzain) | Papp at 5 h, 1 µM ([1]; Table S5, unit inferred) | IC50 (cruzain; [4]) | IC50 at 72 h [2] | Papp at 5 h, 1 µM ([1]; PAMPA, Table 5) | further results
COc1ccc2cc(OCC(=O)NCCc3nc4ccccc4[nH]3)ccc2c1 [Compound 12] | 100% | – | 2.3 ± 0.6 µM | – | – | Papp at 5 h, 1 µM [1, 3]: 0.34 ×10⁻⁶ cm/s; PAMPA ([1]; Table S5): 0.34
O=C(COc1ccccc1)NCCc1nc2ccccc2n1CCCOc1ccccc1 [Compound 24] | 81% | – | 2.2 ± 1.2 µM | > 30000 nM | – | Papp at 5 h, 1 µM [1, 3]: 2.29 ×10⁻⁶ cm/s; PAMPA ([1]; Table S5): 2.29; % cruzain inhibition, 0% Triton (cruzain): 87.9 ± 0.7%; % cruzain inhibition, 0.01% Triton (cruzain): 82.6 ± 0.3%; % cruzain inhibition, 0.1% Triton (cruzain): 82.9 ± 3.5%; IC50 (cruzain; Table S2, substrate 2.5 µM, read-out: IC50 (µM) cruzain at [S] 2.5 µM): 1.7 ± 1.3 µM; IC50 (cruzain; Table S2, substrate 5 µM, read-out: IC50 (µM) cruzain at [S] 5 µM): 2.2 ± 1.3 µM; IC50 (cruzain; Table S2, substrate 10 µM, read-out: IC50 (µM) cruzain at [S] 10 µM): 2.2 ± 1.1 µM; IC50 (cruzain; Table S2, substrate 15 µM, read-out: IC50 (µM) cruzain at [S] 15 µM): 1.9 ± 1.8 µM; IC50 (cruzain; Table S2, substrate 20 µM, read-out: IC50 (µM) cruzain at [S] 20 µM): 2.5 ± 1.2 µM; IC50 (cruzain; Table S2, substrate 40 µM, read-out: IC50 (µM) cruzain at [S] 40 µM): 2.1 ± 0.9 µM; Mechanism of cruzain inhibition (Lineweaver-Burk plots) (cruzain): noncompetitive
Nc1cccc(OCC(=O)NCCc2nc3ccccc3[nH]2)c1 [Compound 9] | 90% | – | 18.2 ± 1.8 µM | – | – | Papp at 5 h, 1 µM [1, 3]: 0.38 ×10⁻⁶ cm/s; PAMPA ([1]; Table S5): 0.38
Cn1c(CCNC(=O)COc2ccccc2)nc2ccccc21 [Compound 25] | 87% | 6.55 ×10⁻⁶ cm/s | 8.6 ± 1.7 µM | – | – | Papp at 5 h, 1 µM [1, 3]: 1.46 ×10⁻⁶ cm/s; Mechanism of cruzain inhibition (Lineweaver-Burk plots) (cruzain): competitive
O=C(COc1ccc2ccc(O)cc2c1)NCCc1nc2ccccc2[nH]1 [Compound 11] | 96% | 0.13 ×10⁻⁶ cm/s | 2.7 ± 0.7 µM | – | – | Papp at 5 h, 1 µM [1, 3]: 0.17 ×10⁻⁶ cm/s
